Experimental data from patent US20240317714A1, “3-[(1H-PYRAZOL-R-YL)OXY]PYRAZIN-2-AMINE COMPOUNDS AS HPK1 INHIBITOR AND USE THEREOF” (BeiGene, Ltd., priority 2020, published 2024).

Legend:
[1] = target: HPK1 kinase (aal-346. Life Technologies) (Homo sapiens (Human), UniProt Q92918); assay: HPK Kinase Activity Assay at 1 mM ATP (TR-FRET); format: biochemical; settings: HPK1 kinase 40 nM, 0.5 μM STK1 substrate, read-out: Enzymatic activity IC50
[2] = test system: pSLP76(S376) level in Jurkat cell line; assay: Cellular pSLP76(S376) HTRF Assay; format: cell-based; settings: Jurkat cells, 2 h compound treatment, stimulated with 0.05 μg/mL anti-human CD3 (OKT3) for 30 min

Sequence of HPK1 kinase (aal-346. Life Technologies) (Q92918 1-346): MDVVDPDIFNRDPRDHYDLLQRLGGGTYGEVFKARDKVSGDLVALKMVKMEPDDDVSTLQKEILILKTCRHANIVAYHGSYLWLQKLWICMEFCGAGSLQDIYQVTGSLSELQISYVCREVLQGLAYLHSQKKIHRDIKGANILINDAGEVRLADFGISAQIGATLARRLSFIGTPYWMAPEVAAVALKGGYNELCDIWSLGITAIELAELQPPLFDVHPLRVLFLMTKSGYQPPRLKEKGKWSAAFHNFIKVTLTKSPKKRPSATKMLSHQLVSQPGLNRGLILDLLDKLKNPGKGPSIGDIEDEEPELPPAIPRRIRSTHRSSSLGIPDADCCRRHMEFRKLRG

Question: What does the source list for CNS(=O)(=O)c1cc(C)cc(-c2cnc(N)c(Oc3cnn(C4CCN(C)CC4)c3)n2)c1 [Example A2, 3-(5-amino-6-((1-(1-methylpiperidin-4-yl)-1H-pyrazol-4-yl)oxy)pyrazin-2-yl)-N,5-dimethylbenzenesulfonamide]?
Answer: IC50 [1]: 14 nM; IC50 ([2]; Homo sapiens, Jurkat): 34 nM

Question: Which results are given for Cc1cc(-c2cnc(N)c(Oc3cnn(C4CCN(C)CC4)c3)n2)cc(C)c1C1COC(=O)N1 (stereo not shown) [Example A29, 4-(4-(5-amino-6-((1-(1-methylpiperidin-4-yl)-1H-pyrazol-4-yl)oxy)pyrazin-2-yl)-2,6-dimethylphenyl)oxazolidin-2-one]?
Answer: IC50 [1]: 21 nM; IC50 ([2]; Homo sapiens, Jurkat): 97 nM

Question: How did the IC50 [1] turn out when CONC(=O)c1c(C)cc(-c2cnc(N)c(Oc3cnn(C4CCN(C)CC4)c3)n2)cc1C [Example A21, 4-(5-amino-6-((1-(1-methylpiperidin-4-yl)-1H-pyrazol-4-yl)oxy)pyrazin-2-yl)-N-methoxy-2,6-dimethylbenzamide] was run?
Answer: The IC50 was 104 nM.

Question: And the IC50 ([2]; Homo sapiens, Jurkat)?
Answer: The IC50 was 188 nM.

Question: Which IC50 [1] does the source give for CNS(=O)(=O)c1cc(C)cc(-c2cnc(N)c(Oc3cnn(C4CCN(CC5COC5)CC4)c3)n2)c1 [Example A28, 3-(5-amino-6-((1-(1-(oxetan-3-ylmethyl)piperidin-4-yl)-1H-pyrazol-4-yl)oxy)pyrazin-2-yl)-N, 5-dimethylbenzenesulfonamide] here?
Answer: The IC50 was 50 nM.

Question: What about the IC50 ([2]; Homo sapiens, Jurkat) of the same compound?
Answer: Its IC50 is 97 nM.

Question: With Cc1cc(-c2cnc(N)c(Oc3cnn(C4CCN(C)CC4)c3)n2)cc(C2(NS(C)(=O)=O)CC2)c1 [Example A11, N-(1-(3-(5-amino-6-((1-(1-methylpiperidin-4-yl)-1H-pyrazol-4-yl)oxy)pyrazin-2-yl)-5-methylphenyl)cyclopropyl)methanesulfonamide] as the compound, how does the IC50 [1] read?
Answer: Its IC50 is 9 nM.

Question: What about the IC50 ([2]; Homo sapiens, Jurkat) of the same compound?
Answer: Its IC50 is 54 nM.

Question: Which IC50 [1] does the source give for Cc1cc(-c2cnc(N)c(Oc3cnn(C4CCN(C)CC4)c3)n2)cc(C)c1C1(O)COC1 [Example A63, 3-(4-(5-amino-6-((1-(1-methylpiperidin-4-yl)-1H-pyrazol-4-yl)oxy)pyrazin-2-yl)-2,6-dimethylphenyl)oxetan-3-ol] here?
Answer: Its IC50 is 39 nM.

Question: And the IC50 ([2]; Homo sapiens, Jurkat)?
Answer: The IC50 was 102 nM.

Question: For Cc1cc(-c2cnc(N)c(Oc3cnn(C4CCN(C)CC4)c3)n2)cc([C@@]2(O)CCOC2)c1 (single isomer, unassigned) [Example A74A], which IC50 [1] is on record?
Answer: Its IC50 is 46 nM.

Question: And the IC50 [2]?
Answer: The IC50 was 85 nM.

Question: What does the source list for Cc1cc(-c2cnc(N)c(Oc3cnn(C4CCN(C)CC4)c3)n2)cc(C2(O)COC2)c1C [Example A73, 3-(5-(5-amino-6-(1-(1-methylpiperidin-4-yl)-1H-pyrazol-4-yloxy)pyrazin-2-yl)-2,3-dimethylphenyl)oxetan-3-ol]?
Answer: IC50 [1]: 11 nM; IC50 ([2]; Homo sapiens, Jurkat): 59 nM

Question: What does the source list for CN1CCC(n2cc(Oc3nc(-c4cc(N5CCCOCC5)cc(C5(O)CCOC5)c4)cnc3N)cn2)CC1 (stereo not shown) [Example A98, 3-(3-(5-amino-6-((1-(1-methylpiperidin-4-yl)-1H-pyrazol-4-yl)oxy)pyrazin-2-yl)-5-(1,4-oxazepan-4-yl)phenyl)tetrahydrofuran-3-ol]?
Answer: IC50 [1]: 9.2 nM; IC50 ([2]; Homo sapiens, Jurkat): 73 nM

Question: How did the IC50 [1] turn out when Cc1cc(-c2cnc(N)c(Oc3cnn(C4CCN(C)CC4)c3)n2)cc([C@@H]2CCC(=O)N2)c1 [Example A61B, (S)-5-(3-(5-amino-6-((1-(1-methylpiperidin-4-yl)-1H-pyrazol-4-yl)oxy)pyrazin-2-yl)-5-methylphenyl)pyrrolidin-2-one] was run?
Answer: The IC50 was 10 nM.

Question: And the IC50 ([2]; Homo sapiens, Jurkat)?
Answer: Its IC50 is 44 nM.

Question: Cc1cc(-c2cnc(N)c(Oc3cnn(C4CCN(C)CC4)c3)n2)cc(C2(O)COC2)c1 [Example A54, 3-(3-(5-amino-6-((1-(1-methylpiperidin-4-yl)-1H-pyrazol-4-yl)oxy)pyrazin-2-yl)-5-methylphenyl)oxetan-3-ol] was tested. Which IC50 [1] did it give?
Answer: The IC50 was 10 nM.

Question: What about the IC50 ([2]; Homo sapiens, Jurkat) of the same compound?
Answer: The IC50 was 33 nM.

Question: CC1OCCC1(O)c1cc(-c2cnc(N)c(Oc3cnn(C4CCN(C)CC4)c3)n2)cc(N2CCOC[C@H]2C)c1 (stereo partly drawn) [Example A94, 3-(3-(5-amino-6-((1-(1-methylpiperidin-4-yl)-1H-pyrazol-4-yl)oxy)pyrazin-2-yl)-5-((R)-3-methylmorpholino)phenyl)-2-methyltetrahydrofuran-3-ol] was tested. Which IC50 [1] did it give?
Answer: The IC50 was 15 nM.

Question: And the IC50 ([2]; Homo sapiens, Jurkat)?
Answer: The IC50 was 119 nM.

Question: Which results are given for Cc1cc(-c2cnc(N)c(Oc3cnn(C4CCN(C)CC4)c3)n2)cc(C)c1CNS(=O)(=O)N1CCOCC1 [Example A71, N-(4-(5-amino-6-((1-(1-methylpiperidin-4-yl)-1H-pyrazol-4-yl)oxy)pyrazin-2-yl)-2,6-dimethylbenzyl)morpholine-4-sulfonamide]?
Answer: IC50 [1]: 26 nM; IC50 ([2]; Homo sapiens, Jurkat): 39 nM

Question: For CNc1cc(-c2cnc(N)c(Oc3cnn(C4CCN(C)CC4)c3)n2)cc(S(=O)(=O)NC)c1 [Example A22, 3-(5-amino-6-((1-(1-methylpiperidin-4-yl)-1H-pyrazol-4-yl)oxy)pyrazin-2-yl)-N-methyl-5-(methylamino)benzenesulfonamide], which IC50 [1] is on record?
Answer: The IC50 was 14 nM.

Question: And the IC50 ([2]; Homo sapiens, Jurkat)?
Answer: Its IC50 is 38 nM.

Question: What does the source list for CNS(=O)(=O)c1cc(C)cc(-c2cnc(N)c(Oc3cnn([C@@H]4C[C@H]5CC[C@@H](C4)N5C)c3)n2)c1 [Example A14, 3-(5-amino-6-((1-((1R,3s,5S)-8-methyl-8-azabicyclo[3.2.1]octan-3-yl)-1H-pyrazol-4-yl)oxy)pyrazin-2-yl)-N,5-dimethylbenzenesulfonamide]?
Answer: IC50 [1]: 45 nM; IC50 ([2]; Homo sapiens, Jurkat): 59 nM

Question: For Cc1cc(-c2cnc(N)c(Oc3cnn(C4CCN(C)CC4)c3)n2)cc(C)c1N1CCOCC1 [Example A66, 5-(3,5-dimethyl-4-morpholinophenyl)-3-((1-(1-methylpiperidin-4-yl)-1H-pyrazol-4-yl)oxy)pyrazin-2-amine], which IC50 [1] is on record?
Answer: Its IC50 is 36 nM.

Question: And the IC50 ([2]; Homo sapiens, Jurkat)?
Answer: The IC50 was 132 nM.

Question: Which results are given for CNS(=O)(=O)c1cc(-c2cnc(N)c(Oc3cnn(C4CCN(C)CC4)c3)n2)cc(N2CCOCC2)c1 [Example A42, 3-(5-amino-6-((1-(1-methylpiperidin-4-yl)-1H-pyrazol-4-yl)oxy)pyrazin-2-yl)-N-methyl-5-morpholinobenzenesulfonamide]?
Answer: IC50 [1]: 19 nM; IC50 ([2]; Homo sapiens, Jurkat): 82 nM

Question: How did the IC50 [1] turn out when CNS(=O)(=O)c1cc(OC)cc(-c2cnc(N)c(Oc3cnn(C4CCN(C)CC4)c3)n2)c1 [Example A7, 3-(5-amino-6-((1-(1-methylpiperidin-4-yl)-1H-pyrazol-4-yl)oxy)pyrazin-2-yl)-5-methoxy-N-methylbenzenesulfonamide] was run?
Answer: The IC50 was 20 nM.

Question: And the IC50 ([2]; Homo sapiens, Jurkat)?
Answer: Its IC50 is 62 nM.

Question: What does the source list for CN1CCC(n2cc(Oc3nc(-c4cc(N5CC6(COC6)C5)cc(C5(O)COC5)c4)cnc3N)cn2)CC1 [Example A78, 3-(3-(5-amino-6-((1-(1-methylpiperidin-4-yl)-1H-pyrazol-4-yl)oxy)pyrazin-2-yl)-5-(2-oxa-6-azaspiro[3.3]heptan-6-yl)phenyl)oxetan-3-ol]?
Answer: IC50 [1]: 5.5 nM; IC50 ([2]; Homo sapiens, Jurkat): 51 nM

Question: Which results are given for CNS(=O)(=O)c1cc(-c2cnc(N)c(Oc3cnn(C4CCN(C)CC4)c3)n2)cc(N2CCCCC2)c1 [Example A41, 3-(5-amino-6-((1-(1-methylpiperidin-4-yl)-1H-pyrazol-4-yl)oxy)pyrazin-2-yl)-N-methyl-5-(piperidin-1-yl)benzenesulfonamide]?
Answer: IC50 [1]: 11 nM; IC50 ([2]; Homo sapiens, Jurkat): 101 nM

Question: How did the IC50 [1] turn out when Cc1cc(-c2cnc(N)c(Oc3cnn(C4CCN(C)CC4)c3)n2)cc(C)c1CNC(=O)c1ccccc1 [Example A44, N-(4-(5-amino-6-((1-(1-methylpiperidin-4-yl)-1H-pyrazol-4-yl)oxy)pyrazin-2-yl)-2,6-dimethylbenzyl)benzamide] was run?
Answer: The IC50 was 9 nM.

Question: And the IC50 ([2]; Homo sapiens, Jurkat)?
Answer: Its IC50 is 61 nM.

Question: With CCN(CC)c1cc(-c2cnc(N)c(Oc3cnn(C4CCN(C)CC4)c3)n2)cc(CNC)n1 [Example B1, 5-(2-(diethylamino)-6-((methylamino)methyl)pyridin-4-yl)-3-((1-(1-methylpiperidin-4-yl)-1H-pyrazol-4-yl)oxy)pyrazin-2-amine] as the compound, how does the IC50 [1] read?
Answer: Its IC50 is 26 nM.

Question: What about the IC50 ([2]; Homo sapiens, Jurkat) of the same compound?
Answer: The IC50 was 181 nM.

Question: Cc1cc(-c2cnc(N)c(Oc3cnn(C4CCN(C)CC4)c3)n2)cc(C2(O)CCOC2)c1F (stereo not shown) [Example A93, 3-(5-(5-amino-6-((1-(1-methylpiperidin-4-yl)-1H-pyrazol-4-yl)oxy)pyrazin-2-yl)-2-fluoro-3-methylphenyl)tetrahydrofuran-3-ol] was tested. Which IC50 [1] did it give?
Answer: The IC50 was 37 nM.

Question: What about the IC50 ([2]; Homo sapiens, Jurkat) of the same compound?
Answer: Its IC50 is 164 nM.

Question: Which IC50 [1] does the source give for Cc1cc(-c2cnc(N)c(Oc3cnn(C4CCN(C)CC4)c3)n2)cc(C)c1CNS(C)(=O)=O [Example A19, N-(4-(5-amino-6-((1-(1-methylpiperidin-4-yl)-1H-pyrazol-4-yl)oxy)pyrazin-2-yl)-2,6-dimethylbenzyl)methanesulfonamide] here?
Answer: The IC50 was 44 nM.

Question: And the IC50 ([2]; Homo sapiens, Jurkat)?
Answer: The IC50 was 46 nM.

Question: What does the source list for COCc1cc(-c2cnc(N)c(Oc3cnn(C4CCN(C)CC4)c3)n2)cc(C2(O)COC2)c1 [Example A82, 3-(3-(5-amino-6-((1-(1-methylpiperidin-4-yl)-1H-pyrazol-4-yl)oxy)pyrazin-2-yl)-5-(methoxymethyl)phenyl)oxetan-3-ol]?
Answer: IC50 [1]: 37 nM; IC50 ([2]; Homo sapiens, Jurkat): 125 nM

Question: Which IC50 [1] does the source give for CNCc1cc(-c2cnc(N)c(Oc3cnn(C4CCN(C)CC4)c3)n2)cc(N2CCC[C@H]2C)n1 [Example B2, (R)-5-(2-((methylamino)methyl)-6-(2-methylpyrrolidin-1-yl)pyridin-4-yl)-3-((1-(1-methylpiperidin-4-yl)-1H-pyrazol-4-yl)oxy)pyrazin-2-amine] here?
Answer: The IC50 was 12 nM.

Question: And the IC50 ([2]; Homo sapiens, Jurkat)?
Answer: Its IC50 is 121 nM.

Question: For Cc1cc(-c2cnc(N)c(Oc3cnn(C4CCN(C)CC4)c3)n2)cc(C)c1CNS(=O)(=O)C1CCCC1 [Example A40, N-(4-(5-amino-6-((1-(1-methylpiperidin-4-yl)-1H-pyrazol-4-yl)oxy)pyrazin-2-yl)-2,6-dimethylbenzyl)cyclopentanesulfonamide], which IC50 [1] is on record?
Answer: The IC50 was 33 nM.

Question: And the IC50 ([2]; Homo sapiens, Jurkat)?
Answer: Its IC50 is 125 nM.

Question: Which IC50 [1] does the source give for C[C@@H]1COCCN1c1cc(-c2cnc(N)c(Oc3cnn(C4CCN(C)CC4)c3)n2)cc([C@]2(O)CCOC2)c1 [Example A80B, (R)-3-(3-(5-amino-6-((1-(1-methylpiperidin-4-yl)-1H-pyrazol-4-yl)oxy)pyrazin-2-yl)-5-((R)-3-methylmorpholino)phenyl)tetrahydrofuran-3-ol] here?
Answer: Its IC50 is 5.4 nM.

Question: And the IC50 ([2]; Homo sapiens, Jurkat)?
Answer: Its IC50 is 48 nM.

Question: Which results are given for Cc1cc(-c2cnc(N)c(Oc3cnn(C4CCN(C)CC4)c3)n2)cc(C)c1CNc1cnn(C)c1 [Example A57, 5-(3,5-dimethyl-4-(((1-methyl-1H-pyrazol-4-yl)amino)methyl)phenyl)-3-((1-(1-methylpiperidin-4-yl)-1H-pyrazol-4-yl)oxy)pyrazin-2-amine]?
Answer: IC50 [1]: 24 nM; IC50 ([2]; Homo sapiens, Jurkat): 76 nM
